The values below come from US20030162760A1 (priority 1999, published 2003).

For assay [1], the system named is Propionibacterium acnes JCM6425 strain. In words: Minimum inhibitory concentration (MIC) against Propionibacterium, turbidity of culture. Format: cell-based. As to the method: By the measurement of minimum inhibitory concentration (MIC), the ascorbic acid-2-phosphate zinc salt, the ascorbic acid-2-phosphate and zinc salt mixture and the ascorbic acid-2-glucoside and zinc salt mixture of the present invention were determined on their antibacterial action against Propionibacterium.
A platinum-loopful of cells of fresh Propionibacterium acnes JCM6425 strain were inoculated in a test tube containing 5 ml of GAM broth medium (produced by Nissui K.K.) previously sterilized and deaerated. Thereto, APZ, AP+Zn and AG+Zn prepared as in Examples 1 to 3, APM and AG, each diluted in a common ratio of 2 to have a concentration of from 10 to 0.078 mg/ml, were added and cultured at 35° C. for 72 hours under anaerobic conditions. After completion of cultivation, the test tube was thoroughly shaken and the turbidity of the culture solution was measured. The minimum concentration when the turbidity was not increased by cultivation was used as the minimum inhibitory concentration (MIC).

Assay [2] has as its system Staphylococcus aureus IFO12732 strain. In words: Minimum inhibitory concentration (MIC) against Staphylococcus, turbidity of culture. Format: cell-based. As to the method: A platinum-loopful of cells of fresh Staphylococcus aureus IFO12732 strain were inoculated in a test tube containing 5 ml of nutrient broth medium (produced by Difco) previously sterilized and deaerated. […] After the completion of cultivation, the turbidity of the culture solution was measured. The minimum concentration when turbidity was not increased by the cultivation was used as the minimum inhibitory concentration (MIC).

Assay [3] has as its system Pseudomonas-derived lipase type XIII. As to the kind of experiment: Lipase inhibitory activity (1), paranitrophenyl palmitate substrate. The settings on record: for Inhibitory Ratio: Pseudomonas lipase, pH 7.0, 30° C., 10 minutes. The assay is classed as biochemical. The protocol:
The activity of inhibiting lipase derived from Pseudomonas of the ascorbic acid-2-phosphate zinc salt, the ascorbic acid-2-phosphate and zinc salt mixture and the ascorbic acid-2-glucoside and zinc salt mixture of the present invention was examined.
Pseudomonas-derived lipase type XIII (produced by Sigma) was dissolved in 100 mM phosphate buffer (pH: 7.0) to have a final concentration of 43 mU/ml. 2 ml of the resulting solution was poured in a small test tube and thereto, APZ, AP+Zn and AG+Zn prepared as in Examples 1 to 3, APM and AG were added each to have concentrations of 1 mg/ml and 10 mg/ml. The reaction was started by addition of a substrate paranitrophenyl palmitate at a final concentration of 0.14 mg/ml. The reaction was performed at 30° C. for 10 minutes under shaking. After completion of the reaction, the absorbance at a wavelength of 405 nm was measured and the difference from the absorbance of a control test tube where the substrate was not present was used as the activity. The ratio between activity when a sample was present and activity when the sample was not present was calculated as the inhibitory ratio of each sample and the values obtained were compared.

For assay [4], the system named is lipase derived from Propionibacterium. As to the kind of experiment: Lipase inhibitory activity (2), partially purified lipase, paranitrophenyl palmitate substrate. The assay is classed as biochemical, Propionibacterium acnes JCM6425. The settings on record: for Inhibitory Ratio: P. acnes lipase, pH 6.5, 30° C., 120 minutes. As to the method: The activity of inhibiting lipase derived from Propionibacterium of the ascorbic acid-2-phosphate zinc salt, the ascorbic acid-2-phosphate and zinc salt mixture and the ascorbic acid-2-glucoside and zinc salt mixture of the present invention was examined.
The culture solution of Propionibacterium acnes JCM6425 cultured in the same manner as in Example 7 was dialyzed with 50 mM phosphate buffer, then concentrated to about 1/10 the amount using an ultrafiltration film having a fraction molecular weight of 10,000 and used as the lipase partially purified product.
To 1.9 ml of 50 mM HEPES buffer (pH: 6.5) separately placed in a small test tube, 0.1 ml of the lipase partially purified product was added and thereto, APZ, AP+Zn and AG+Zn prepared in Examples 1 to 3, APM and AG were added each to have concentrations of 0.1 mg/ml, 1 mg/ml and 10 mg/ml. The reaction was started by addition of a substrate paranitrophenyl palmitate at a final concentration of 0.14 mg/ml. The reaction was performed at 30° C. for 120 minutes under shaking. After completion of the reaction, the absorbance at a wavelength of 405 nm was measured and the difference from the absorbance of a control test tube where the substrate was not present was used as the activity. The ratio between activity when a sample was present and activity when the sample was not present was calculated as the inhibitory ratio of each sample and the values obtained were compared.

Assay [5] deals with hyaluronidase derived from Propionibacterium. In words: Hyaluronidase inhibitory activity, partially purified enzyme, hyaluronic acid substrate. Format: biochemical, Propionibacterium acnes JCM6425. The note with it: for Inhibitory Ratio: P. acnes hyaluronidase, pH 7.0, 30° C., 15 minutes. As to the method: The activity of inhibiting hyaluronidase derived from Propionibacterium of the ascorbic acid-2-phosphate zinc salt, the ascorbic acid-2-phosphate and zinc salt mixture and the ascorbic acid-2-glucoside and zinc salt mixture of the present invention was examined.
The culture solution of Propionibacterium acnes JCM6425 cultured in the same manner as in Example 7 was dialyzed with 50 mM phosphate buffer, then concentrated to about 1/10 the amount using a membrane having a fraction molecular weight of 10,000 and used as the hyaluronidase partially purified product.
To 1.8 ml of 50 mM HEPES buffer (pH: 7.0) separately placed in a small test tube, 0.2 ml of the […] partially purified product was added and thereto, APZ, AP+Zn and AG+Zn prepared in Examples 1 to 3, APM and AG were added each to have concentrations of 0.1 mg/ml, 1 mg/ml and 10 mg/ml. The reaction was started by addition of a substrate hyaluronic acid at a final concentration of 0.8 mg/ml. The reaction was performed at 30° C. for 15 minutes under shaking. After the shaking, 0.1 ml of 0.2M potassium tetraborate was added, kept at 100° C. for 3 minutes and cooled. To this solution, 3 ml of a paradimethylaminobenzaldehyde reagent (obtained by mixing and dissolving 10 g of dimethylaminobenzaldehyde, 12.5 ml of 10N hydrochloric acid and 77.5 ml of glacial acetic acid) 10 times diluted with glacial acetic acid was added and left standing at 37° C. for 20 minutes to allow reaction with N-acetylglucosamine liberated to proceed and thereby cause coloring. The absorbance at a wavelength of 544 nm was measured and the difference from the absorbance of a control test tube where the substrate was not present was used as the activity. The ratio between activity when a sample was present and activity when the sample was not present was calculated as the inhibitory ratio of each sample and the values obtained were compared.

≈ marks a conversion by molar mass, not a printed value. Like-named read-outs stand apart in the source and are kept apart here.

One may read the MIC as the smallest concentration in the dilution series that meets the test's criterion for growth inhibition.

For the compound `O=C1O[C@H]([C@@H](O)CO)C(O)=C1O[C@H]1O[C@H](CO)[C@@H](O)[C@H](O)[C@H]1O` [AG, L-ascorbic acid-2-O-glucoside], the MIC in assay [1] (Propionibacterium acnes JCM6425, GAM broth, 35° C., 72 hours, anaerobic) was above 10000 µg/mL; in assay [2] (Staphylococcus aureus IFO12732, nutrient broth, 35° C., 48 hours, shaking) it was 10000 µg/mL (≈ 29.6 mM). The “Inhibitory Ratio” value in assay [3] (sample 1 mg/ml) is 0%; in assay [3] (sample 10 mg/ml), 0%; in assay [4] (sample 0.1 mg/ml), 0%; in assay [4] (sample 1 mg/ml) it was 0%; in assay [4] (sample 10 mg/ml) it was 0%; in assay [5] (sample 0.1 mg/ml), 10%. The “Inhibitory Ratio” value is 13% in assay [5] (sample 1 mg/ml) and 22% in assay [5] (sample 10 mg/ml).

Consider `O=C1OC(C(O)CO)C2=C1OP(=O)([O][Zn][O]P1(=O)[O][Zn][O]C3=C(O1)C(=O)OC3C(O)CO)[O][Zn][O]2` (centres unmarked), for which the MIC was 313 µg/mL in assay [1] (Cutibacterium acnes, JCM6425, 72 h) and 625 µg/mL in assay [2] (Staphylococcus aureus, IFO12732, 48 h). Moreover, the “antibacterial activity against Propionibacterium (in words)” value in assay [1] (summary of Table 1) was “verified to have antibacterial activity”. The “antibacterial action against Staphylococcus (in words)” value in assay [2] (summary of Table 2) was “verified to have antibacterial action”. Besides, the “lipase inhibitory activity (in words)” value in assay [3] (Pseudomonas-derived lipase, summary of Table 3) is reported as “verified to have lipase inhibitory activity”; in assay [4] (Propionibacterium-derived lipase, summary of Table 4), “verified to have strong lipase inhibitory activity”. Also, the “Inhibitory Ratio” value in assay [3] (sample 1 mg/ml) turned out to be 76%; in assay [3] (sample 10 mg/ml), 98%; in assay [4] (sample 0.1 mg/ml), 93%; in assay [4] (sample 1 mg/ml) it was 100%; in assay [4] (sample 10 mg/ml), 100%; in assay [5] (sample 0.1 mg/ml), 80%. For the same compound, the figures for the “Inhibitory Ratio” value in assay [5] (sample 1 mg/ml) and in assay [5] (sample 10 mg/ml) were 98% and 100%, respectively. Besides, the “hyaluronidase inhibitory activity (in words)” value in assay [5] (Propionibacterium-derived hyaluronidase, summary of Table 5) is listed as “verified to have strong hyaluronidase inhibitory activity”.

In the case of `O=C1O[C@H]([C@@H](O)CO)C(O)=C1OP(=O)([O-])[O-].[Mg+2]` [APM, L-ascorbic acid-2-phosphate magnesium salt], the MIC is above 10000 µg/mL in assay [1] (Cutibacterium acnes, Propionibacterium acnes JCM6425, GAM broth, 35° C., 72 hours, anaerobic, read-out: MIC) and 10000 µg/mL in assay [2] (Staphylococcus aureus IFO12732, nutrient broth, 35° C., 48 hours, shaking, read-out: MIC). Besides, the “Inhibitory Ratio” value in assay [3] (sample 1 mg/ml) is given as 0%; in assay [3] (sample 10 mg/ml), 0%; in assay [4] (sample 0.1 mg/ml) it was 0%; in assay [4] (sample 1 mg/ml), 0%; in assay [4] (sample 10 mg/ml), 0%; in assay [5] (sample 0.1 mg/ml) it was 22%. The “Inhibitory Ratio” value in assay [5] (sample 1 mg/ml) was found to be 32%; in assay [5] (sample 10 mg/ml), 34%.
